From ChEMBL document CHEMBL1143254, “Structure-based design of novel 2-amino-6-phenyl-pyrimido[5',4':5,6]pyrimido[1,2-a]benzimidazol-5(6H)-ones as potent and orally active inhibitors of lymphocyte specific kinase (Lck): synthesis, SAR, and in vivo anti-inflammatory activity” (J Med Chem, 2008)

System: Jurkat
Assay: Cytotoxicity against human Jurkat T cells assessed as cell viability after 72 hrs
Details: not given

| Compound | IC50 [µM] |
| --- | --- |
| Cc1cccc(C)c1-n1c(=O)c2cnc(Nc3ccc(N4CCN(C)CC4)cc3)nc2n2c3ccccc3nc12 | 0.49 |

System: not listed separately
Assay: AUC (0 to infinity) in Sprague-Dawley rat at 2 mg/kg, iv
Type: ADME, organism-based
Parameters: time infinity, dose 2 mg/kg, route intravenous
Details: plasma

| Compound | AUC(0-inf) [ng·h/mL] |
| --- | --- |
| Cc1cccc(C)c1-n1c(=O)c2cnc(Nc3ccc(N4CCN(C)CC4)cc3)nc2n2c3ccccc3nc12 | 1150 |

System: not listed separately
Assay: Clearance in Sprague-Dawley rat at 2 mg/kg, iv
Type: ADME, organism-based
Parameters: dose 2 mg/kg, route intravenous
Details: in vivo

| Compound | clearance [mL/min/kg] |
| --- | --- |
| Cc1cccc(C)c1-n1c(=O)c2cnc(Nc3ccc(N4CCN(C)CC4)cc3)nc2n2c3ccccc3nc12 | 30 |

System: not listed separately
Assay: Volume of distribution at steady state in Sprague-Dawley rat at 2 mg/kg, iv
Type: ADME, organism-based
Parameters: dose 2 mg/kg, route intravenous
Details: in vivo, read-out: Vdss

| Compound | Vd [L/kg] |
| --- | --- |
| Cc1cccc(C)c1-n1c(=O)c2cnc(Nc3ccc(N4CCN(C)CC4)cc3)nc2n2c3ccccc3nc12 | 7.5 |

System: not listed separately
Assay: Cmax in Sprague-Dawley rat at 5 mg/kg, po
Type: ADME, organism-based
Parameters: dose 5 mg/kg, route oral
Details: in vivo

| Compound | Cmax [ng/mL] |
| --- | --- |
| Cc1cccc(C)c1-n1c(=O)c2cnc(Nc3ccc(N4CCN(C)CC4)cc3)nc2n2c3ccccc3nc12 | 82 |

System: not listed separately
Assay: Tmax in Sprague-Dawley rat at 5 mg/kg, po
Type: ADME, organism-based
Parameters: dose 5 mg/kg, route oral
Details: in vivo

| Compound | Tmax [h] |
| --- | --- |
| Cc1cccc(C)c1-n1c(=O)c2cnc(Nc3ccc(N4CCN(C)CC4)cc3)nc2n2c3ccccc3nc12 | 3 |

System: not listed separately
Assay: AUC (0 to infinity) in Sprague-Dawley rat at 5 mg/kg, po
Type: ADME, organism-based
Parameters: time infinity, dose 5 mg/kg, route oral
Details: plasma

| Compound | AUC(0-inf) [ng·h/mL] |
| --- | --- |
| Cc1cccc(C)c1-n1c(=O)c2cnc(Nc3ccc(N4CCN(C)CC4)cc3)nc2n2c3ccccc3nc12 | 862 |

System: not listed separately
Assay: Oral bioavailability in Sprague-Dawley rat at 5 mg/kg
Type: ADME, organism-based
Details: in vivo

| Compound | bioavailability [%] |
| --- | --- |
| Cc1cccc(C)c1-n1c(=O)c2cnc(Nc3ccc(N4CCN(C)CC4)cc3)nc2n2c3ccccc3nc12 | 17 |

System: Mus musculus
Assay: Inhibition of anti-CD3-induced IL2 production in BALB/c mouse serum at 3 mg/kg, po by ELISA relative to control
Type: functional
Details: not given

| Compound | inhibition in vivo at 3 mg/kg [%] |
| --- | --- |
| Cc1cccc(C)c1-n1c(=O)c2cnc(Nc3ccc(N4CCN(C)CC4)cc3)nc2n2c3ccccc3nc12 | 15 |

System: Mus musculus
Assay: Inhibition of anti-CD3-induced IL2 production in BALB/c mouse serum at 10 mg/kg, po by ELISA relative to control
Type: functional
Details: not given

| Compound | inhibition in vivo at 10 mg/kg [%] |
| --- | --- |
| Cc1cccc(C)c1-n1c(=O)c2cnc(Nc3ccc(N4CCN(C)CC4)cc3)nc2n2c3ccccc3nc12 | 28 |

System: Mus musculus
Assay: Inhibition of anti-CD3-induced IL2 production in BALB/c mouse serum at 30 mg/kg, po by ELISA relative to control
Type: functional
Details: not given

| Compound | inhibition in vivo at 30 mg/kg [%] |
| --- | --- |
| Cc1cccc(C)c1-n1c(=O)c2cnc(Nc3ccc(N4CCN(C)CC4)cc3)nc2n2c3ccccc3nc12 | 56 |

Species: Mus musculus
Assay: Inhibition of anti-CD3-induced IL2 production in BALB/c mouse serum by ELISA
Type: functional
Details: not given

| Compound | ED50 [mg/kg] |
| --- | --- |
| Cc1cccc(C)c1-n1c(=O)c2cnc(Nc3ccc(N4CCN(C)CC4)cc3)nc2n2c3ccccc3nc12 | 26 |

System: Rattus norvegicus
Assay: Inhibition of Mycobacterium tuberculosis H37Ra-induced arthritis in Lewis rat assessed as reduction of paw swelling at 10 mg/kg, po daily from day 9 to day 17 relative to control
Type: functional
Details: not given

| Compound | inhibition in vivo at 10 mg/kg [%] |
| --- | --- |
| Cc1cccc(C)c1-n1c(=O)c2cnc(Nc3ccc(N4CCN(C)CC4)cc3)nc2n2c3ccccc3nc12 | 17 |

System: Rattus norvegicus
Assay: Inhibition of Mycobacterium tuberculosis H37Ra-induced arthritis in Lewis rat assessed as reduction of paw swelling at 20 mg/kg, po daily from day 9 to day 17 relative to control
Type: functional
Details: not given

| Compound | inhibition in vivo at 20 mg/kg [%] |
| --- | --- |
| Cc1cccc(C)c1-n1c(=O)c2cnc(Nc3ccc(N4CCN(C)CC4)cc3)nc2n2c3ccccc3nc12 | 64 |

System: Rattus norvegicus
Assay: Inhibition of Mycobacterium tuberculosis H37Ra-induced arthritis in Lewis rat assessed as reduction of paw swelling at 60 mg/kg, po daily from day 9 to day 17 relative to control
Type: functional
Details: not given

| Compound | inhibition in vivo at 60 mg/kg [%] |
| --- | --- |
| Cc1cccc(C)c1-n1c(=O)c2cnc(Nc3ccc(N4CCN(C)CC4)cc3)nc2n2c3ccccc3nc12 | 90 |

System: Rattus norvegicus
Assay: Inhibition of Mycobacterium tuberculosis H37Ra-induced arthritis in po dosed Lewis rat assessed as reduction of paw swelling
Type: functional
Details: not given

| Compound | ED50 [mg/kg] |
| --- | --- |
| Cc1cccc(C)c1-n1c(=O)c2cnc(Nc3ccc(N4CCN(C)CC4)cc3)nc2n2c3ccccc3nc12 | 24 |

System: not listed separately
Assay: AUC in Mycobacterium tuberculosis H37Ra-induced arthritis Lewis rat
Type: ADME, organism-based
Details: plasma

| Compound | AUC [µM·h] |
| --- | --- |
| Cc1cccc(C)c1-n1c(=O)c2cnc(Nc3ccc(N4CCN(C)CC4)cc3)nc2n2c3ccccc3nc12 | 2.7 |

System: not listed separately
Assay: Cmax in Mycobacterium tuberculosis H37Ra-induced arthritis Lewis rat
Type: ADME, organism-based
Details: in vivo

| Compound | Cmax [nM] |
| --- | --- |
| Cc1cccc(C)c1-n1c(=O)c2cnc(Nc3ccc(N4CCN(C)CC4)cc3)nc2n2c3ccccc3nc12 | 700 |

System: Rattus norvegicus
Assay: Antiinflammatory activity against collagen-induced arthritis in Lewis rat assessed as reduction of paw swelling at 0.3 mg/kg, po qd for 7 days relative to control
Type: functional
Parameters: scale not given: the % may be the effect or the level left
Details: not given

| Compound | Activity [%] |
| --- | --- |
| Cc1cccc(C)c1-n1c(=O)c2cnc(Nc3ccc(N4CCN(C)CC4)cc3)nc2n2c3ccccc3nc12 | 15 |

System: Rattus norvegicus
Assay: Antiinflammatory activity against collagen-induced arthritis in Lewis rat assessed as reduction of paw swelling at 1 mg/kg, po qd for 7 days relative to control
Type: functional
Parameters: scale not given: the % may be the effect or the level left
Details: not given

| Compound | Activity [%] |
| --- | --- |
| Cc1cccc(C)c1-n1c(=O)c2cnc(Nc3ccc(N4CCN(C)CC4)cc3)nc2n2c3ccccc3nc12 | 21 |

System: not listed separately
Assay: AUC in collagen-induced arthritis Lewis rat
Type: ADME, organism-based
Details: plasma

| Compound | AUC [µM·h] |
| --- | --- |
| Cc1cccc(C)c1-n1c(=O)c2cnc(Nc3ccc(N4CCN(C)CC4)cc3)nc2n2c3ccccc3nc12 | 3.3 |

System: not listed separately
Assay: Cmax in collagen-induced arthritis Lewis rat
Type: ADME, organism-based
Details: in vivo

| Compound | Cmax [nM] |
| --- | --- |
| Cc1cccc(C)c1-n1c(=O)c2cnc(Nc3ccc(N4CCN(C)CC4)cc3)nc2n2c3ccccc3nc12 | 500 |

System: not listed separately
Assay: Half life in Sprague-Dawley rat at 2 mg/kg, iv
Type: ADME, organism-based
Parameters: dose 2 mg/kg, route intravenous
Details: in vivo

| Compound | half-life [h] |
| --- | --- |
| Cc1cccc(C)c1-n1c(=O)c2cnc(Nc3ccc(N4CCN(C)CC4)cc3)nc2n2c3ccccc3nc12 | 3.12 |
